Measurements published in patent publication US10253015B2, “Pyridinyl quinolinone derivatives as mutant-isocitrate dehydrogenase inhibitors” (FORMA TM2, Inc., priority 2014, dated 2019).

What follows are molecules tested against IDH1-R132H recombinant protein (Homo sapiens (Human), UniProt O75874, R132H) (assay: IDH1-R132H enzymatic assay). Details: inhibition of NADPH consumption, diaphorase/resazurin readout; read-out: Enzyme IDH1 R132H Range IC50.
Chain of IDH1-R132H recombinant protein (O75874 whole entry R132H): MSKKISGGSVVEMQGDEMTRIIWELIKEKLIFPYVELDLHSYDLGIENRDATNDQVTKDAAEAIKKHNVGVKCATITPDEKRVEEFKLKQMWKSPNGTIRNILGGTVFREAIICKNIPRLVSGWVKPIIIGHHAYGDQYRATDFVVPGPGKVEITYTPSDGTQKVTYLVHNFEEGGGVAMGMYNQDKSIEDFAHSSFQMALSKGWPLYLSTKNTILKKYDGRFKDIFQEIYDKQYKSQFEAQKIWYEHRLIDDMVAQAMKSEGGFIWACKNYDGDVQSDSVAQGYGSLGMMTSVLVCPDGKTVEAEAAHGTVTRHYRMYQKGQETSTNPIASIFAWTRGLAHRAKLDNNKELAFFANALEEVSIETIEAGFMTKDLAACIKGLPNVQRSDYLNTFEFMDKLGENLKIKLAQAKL
Format: biochemical
Procedure: Assays were performed in a 384-well black plate. […] After the plate was centrifuged briefly, an aliquot of 10 μL of 2 mM α-ketoglutarate and 20 μM NADPH solution prepared in assay buffer was then added to each well and the reaction was maintained at 25° C. for 45 minutes. An aliquot of 10 μL of diaphorase solution (0.15 U/mL diaphorase and 30 μM Resazurin in assay buffer) was added to each well. […] The IC50 of a given compound was calculated by fitting the dose response curve of inhibition of NADPH consumption at a given concentration with the four parameter logistic equation.
`Cc1cc(N2CCOC2=O)cc(N[C@@H](C)c2cc3cc(Cl)ccc3[nH]c2=O)n1` [Compound I-12, 6-chloro-3-[(1S)-1-{[6-methyl-4-(2-oxo-1,3-oxazolidin-3-yl)pyridin-2-yl]amino}ethyl]-1,2-dihydroquinolin-2-one] showed an IC50 of 0.1 to 1 µM. For `Cc1c(N2CCOC2=O)ccnc1N[C@@H](C)c1cc2cc(Cl)ccc2[nH]c1=O` [Compound I-15, 6-chloro-3-[(1S)-1-{[3-methyl-4-(2-oxo-1,3-oxazolidin-3-yl)pyridin-2-yl]amino}ethyl]-1,2-dihydroquinolin-2-one], the IC50 was 0.1 to 1 µM. Work on `C[C@H](Nc1cc(F)cc(N2CCOC2=O)n1)c1cc2cc(Cl)ccc2[nH]c1=O` [Compound I-16, 6-chloro-3-[(1S)-1-{[4-fluoro-6-(2-oxo-1,3-oxazolidin-3-yl)pyridin-2-yl]amino}ethyl]-1,2-dihydroquinolin-2-one] yielded an IC50 of 1 to 10 µM. In the case of `CC(C)[C@H]1COC(=O)N1c1cccc(N[C@H](C)c2cc3cc(Cl)ccc3[nH]c2=O)n1` [Compound I-20, 6-chloro-3-[(1R)-1-({6-[(4S)-2-oxo-4-(propan-2-yl)-1,3-oxazolidin-3-yl]pyridin-2-yl}amino)ethyl]-1,2-dihydroquinolin-2-one], the IC50 is reported as > 10 µM. For `Cc1nc(NC2(c3cc4cc(Cl)ccc4[nH]c3=O)CC2)ccc1C#N` [Compound I-31, 6-{[1-(6-chloro-2-oxo-1,2-dihydroquinolin-3-yl)cyclopropyl]amino}-2-methylpyridine-3-carbonitrile], the IC50 was 0.1 to 1 µM. Work on `Cc1nc(NC(C)(C)c2cc3cc(Cl)ccc3[nH]c2=O)ccc1C#N` [Compound I-32, 6-{[2-(6-chloro-2-oxo-1,2-dihydroquinolin-3-yl)propan-2-yl]amino}-2-methylpyridine-3-carbonitrile] yielded an IC50 of 0.1 to 1 µM. With `Cc1cc(NCCO)cc(N[C@@H](C)c2cc3cc(Cl)ccc3[nH]c2=O)n1` [Compound I-33, 6-chloro-3-[(1S)-1-({4-[(2-hydroxyethyl)amino]-6-methylpyridin-2-yl}amino)ethyl]-1,2-dihydroquinolin-2-one] the IC50 was 1 to 10 µM. `C[C@H](Nc1cccc(N2CCCS2(=O)=O)n1)c1cc2cc(Cl)ccc2[nH]c1=O` [Compound I-35, 2-(6-{[(1S)-1-(6-chloro-2-oxo-1,2-dihydroquinolin-3-yl)ethyl]amino}pyridin-2-yl)-1λ^6,2-thiazolidine-1,1-dione] was tested, and the IC50 was 1 to 10 µM. For `C[C@H](Nc1nccc(-n2ccnc2)c1F)c1cc2cc(Cl)ccc2[nH]c1=O` [Compound I-37, 6-chloro-3-[(1S)-1-{[3-fluoro-4-(1H-imidazol-1-yl)pyridin-2-yl]amino}ethyl]-1,2-dihydroquinolin-2-one], the IC50 was 1 to 10 µM. `Cc1cn(-c2ccnc(N[C@@H](C)c3cc4cc(Cl)ccc4[nH]c3=O)c2F)cn1` [Compound I-38, 6-chloro-3-[(1S)-1-{[3-fluoro-4-(4-methyl-1H-imidazol-1-yl)pyridin-2-yl]amino}ethyl]-1,2-dihydroquinolin-2-one] showed an IC50 of 1 to 10 µM. `C[C@H](Nc1nccc(-c2cccn2C)c1F)c1cc2cc(Cl)ccc2[nH]c1=O` [Compound I-42, 6-chloro-3-[(1S)-1-{[3-fluoro-4-(1-methyl-1H-pyrrol-2-yl)pyridin-2-yl]amino}ethyl]-1,2-dihydroquinolin-2-one] gave an IC50 of 1 to 10 µM. For `Cc1c(-c2ccnc(N[C@@H](C)c3cc4cc(Cl)ccc4[nH]c3=O)c2F)cnn1C` [Compound I-45, 6-chloro-3-[(1S)-1-{[4-(1,5-dimethyl-1H-pyrazol-4-yl)-3-fluoropyridin-2-yl]amino}ethyl]-1,2-dihydroquinolin-2-one], the IC50 was 1 to 10 µM. `Cc1cscc1-c1ccnc(N[C@@H](C)c2cc3cc(Cl)ccc3[nH]c2=O)c1F` [Compound I-46, 6-chloro-3-[(1S)-1-{[3-fluoro-4-(4-methylthiophen-3-yl)pyridin-2-yl]amino}ethyl]-1,2-dihydroquinolin-2-one] gave an IC50 of 1 to 10 µM. `Cc1n[nH]c(C)c1-c1ccnc(N[C@@H](C)c2cc3cc(Cl)ccc3[nH]c2=O)c1F` [Compound I-51, 6-chloro-3-[(1S)-1-{[4-(3,5-dimethyl-1H-pyrazol-4-yl)-3-fluoropyridin-2-yl]amino}ethyl]-1,2-dihydroquinolin-2-one] was tested, and the IC50 was 1 to 10 µM. In the case of `Cc1noc(C)c1-c1ccnc(N[C@@H](C)c2cc3cc(Cl)ccc3[nH]c2=O)c1F` [Compound I-54, 6-chloro-3-[(1S)-1-{[4-(dimethyl-1,2-oxazol-4-yl)-3-fluoropyridin-2-yl]amino}ethyl]-1,2-dihydroquinolin-2-one], the IC50 is reported as > 10 µM. For `C[C@H](Nc1nccc(-c2ccnn2C2CCCCO2)c1F)c1cc2cc(Cl)ccc2[nH]c1=O` (stereo partly drawn) [Compound I-55, 6-chloro-3-[(1S)-1-({3-fluoro-4-[1-(oxan-2-yl)-1H-pyrazol-5-yl]pyridin-2-yl}amino)ethyl]-1,2-dihydroquinolin-2-one], the IC50 was > 10 µM. For `CC(C)n1nccc1-c1ccnc(N[C@@H](C)c2cc3cc(Cl)ccc3[nH]c2=O)c1F` [Compound I-57, 6-chloro-3-[(1S)-1-({3-fluoro-4-[1-(propan-2-yl)-1H-pyrazol-5-yl]pyridin-2-yl}amino)ethyl]-1,2-dihydroquinolin-2-one], the IC50 was > 10 µM. `N#Cc1ccc(NCc2cc3cc(Cl)ccc3[nH]c2=O)nc1C(F)(F)F` [Compound I-60, 6-{[(6-chloro-2-oxo-1,2-dihydroquinolin-3-yl)methyl]amino}-2-(trifluoromethyl)pyridine-3-carbonitrile] was tested, and the IC50 was 1 to 10 µM. `COc1nc(C#N)ccc1NCc1cc2cc(Cl)ccc2[nH]c1=O` [Compound I-61, 5-{[(6-chloro-2-oxo-1,2-dihydroquinolin-3-yl)methyl]amino}-6-methoxypyridine-2-carbonitrile] was tested, and the IC50 was < 0.1 µM. With `N#Cc1ccc(NCc2cc3cc(Cl)ccc3[nH]c2=O)nc1Cl` [Compound I-62, 2-chloro-6-{[(6-chloro-2-oxo-1,2-dihydroquinolin-3-yl)methyl]amino}pyridine-3-carbonitrile] the IC50 was > 10 µM. `N#Cc1ccc(NCc2cc3cc(Cl)ccc3[nH]c2=O)nc1N1CCOC1=O` [Compound I-63, 6-{[(6-chloro-2-oxo-1,2-dihydroquinolin-3-yl)methyl]amino}-2-(2-oxo-1,3-oxazolidin-3-yl)pyridine-3-carbonitrile] was tested, and the IC50 was > 10 µM. For `CC(C)C1CCCN1c1nc(NCc2cc3cc(Cl)ccc3[nH]c2=O)ccc1C#N` (stereo not drawn) [Compound I-64, 6-{[(6-chloro-2-oxo-1,2-dihydroquinolin-3-yl)methyl]amino}-2-[2-(propan-2-yl)pyrrolidin-1-yl]pyridine-3-carbonitrile], the IC50 was > 10 µM. `CC(C)CN(C)c1nc(NCc2cc3cc(Cl)ccc3[nH]c2=O)ccc1C#N` [Compound I-65, 6-{[(6-chloro-2-oxo-1,2-dihydroquinolin-3-yl)methyl]amino}-2-[methyl(2-methylpropyl)amino]pyridine-3-carbonitrile] was tested, and the IC50 was > 10 µM. With `COc1nc(NCc2cc3cc(Cl)ccc3[nH]c2=O)ccc1C#N` [Compound I-66, 6-{[(6-chloro-2-oxo-1,2-dihydroquinolin-3-yl)methyl]amino}-2-methoxypyridine-3-carbonitrile] the IC50 was > 10 µM. With `CC(C)c1cccnc1NCc1cc2cc(Cl)ccc2[nH]c1=O` [Compound I-68, 6-chloro-3-({[3-(propan-2-yl)pyridin-2-yl]amino}methyl)-1,2-dihydroquinolin-2-one] the IC50 was 0.1 to 1 µM. Molecule `Cc1cc(C)nc(NCc2cc3cc(Cl)ccc3[nH]c2=O)c1` [Compound I-69, 6-chloro-3-{[(4,6-dimethylpyridin-2-yl)amino]methyl}-1,2-dihydroquinolin-2-one] has an IC50 of 1 to 10 µM. `COc1ccnc(NCc2cc3cc(Cl)ccc3[nH]c2=O)c1` [Compound I-70, 6-chloro-3-{[(4-methoxypyridin-2-yl)amino]methyl}-1,2-dihydroquinolin-2-one] showed an IC50 of 1 to 10 µM. For `O=c1[nH]c2ccc(Cl)cc2cc1CNc1ccc(F)cn1` [Compound I-71, 6-chloro-3-{[(5-fluoropyridin-2-yl)amino]methyl}-1,2-dihydroquinolin-2-one], the IC50 was 1 to 10 µM. Work on `N#Cc1ccnc(NCc2cc3cc(Cl)ccc3[nH]c2=O)c1` [Compound I-72, 2-{[(6-chloro-2-oxo-1,2-dihydroquinolin-3-yl)methyl]amino}pyridine-4-carbonitrile] yielded an IC50 of 1 to 10 µM. Molecule `COC(=O)c1cccc(NCc2cc3cc(Cl)ccc3[nH]c2=O)n1` [Compound I-73, methyl 6-{[(6-chloro-2-oxo-1,2-dihydroquinolin-3-yl)methyl]amino}pyridine-2-carboxylate] has an IC50 of 1 to 10 µM. `Cc1ccnc(NCc2cc3cc(Cl)ccc3[nH]c2=O)c1` [Compound I-74, 6-chloro-3-{[(4-methylpyridin-2-yl)amino]methyl}-1,2-dihydroquinolin-2-one] showed an IC50 of 1 to 10 µM. With `O=c1[nH]c2ccc(Cl)cc2cc1CNc1ccc(Cl)cn1` [Compound I-75, 6-chloro-3-{[(5-chloropyridin-2-yl)amino]methyl}-1,2-dihydroquinolin-2-one] the IC50 was 1 to 10 µM. Work on `O=c1[nH]c2ccc(Cl)cc2cc1CNc1cccnc1O` [Compound I-76, 6-chloro-3-{[(2-hydroxypyridin-3-yl)amino]methyl}-1,2-dihydroquinolin-2-one] yielded an IC50 of 1 to 10 µM. `O=c1[nH]c2ccc(Cl)cc2cc1CNc1ccc(C(F)(F)F)cn1` [Compound I-77, 6-chloro-3-({[5-(trifluoromethyl)pyridin-2-yl]amino}methyl)-1,2-dihydroquinolin-2-one] was tested, and the IC50 was > 10 µM. `N#Cc1ccc(NCc2cc3cc(Cl)ccc3[nH]c2=O)cn1` [Compound I-78, 5-{[(6-chloro-2-oxo-1,2-dihydroquinolin-3-yl)methyl]amino}pyridine-2-carbonitrile] was tested, and the IC50 was > 10 µM. In the case of `O=c1[nH]c2ccc(Cl)cc2cc1CNc1cc(C(F)(F)F)ccn1` [Compound I-79, 6-chloro-3-({[4-(trifluoromethyl)pyridin-2-yl]amino}methyl)-1,2-dihydroquinolin-2-one], the IC50 is reported as > 10 µM.
